{"source": "paper PMC7887271", "about": "“Fast acting allosteric phosphofructokinase inhibitors block trypanosome glycolysis and cure acute African trypanosomiasis in mice” (Nature Communications, 2021)", "target": "T1, TbPFK (Trypanosoma brucei brucei, UniProt O15648)", "T1 construct": "made in house; host or cells: Escherichia coli C41 (pET28a, codon optimised gene)", "T1 sequence (O15648 1-487)": "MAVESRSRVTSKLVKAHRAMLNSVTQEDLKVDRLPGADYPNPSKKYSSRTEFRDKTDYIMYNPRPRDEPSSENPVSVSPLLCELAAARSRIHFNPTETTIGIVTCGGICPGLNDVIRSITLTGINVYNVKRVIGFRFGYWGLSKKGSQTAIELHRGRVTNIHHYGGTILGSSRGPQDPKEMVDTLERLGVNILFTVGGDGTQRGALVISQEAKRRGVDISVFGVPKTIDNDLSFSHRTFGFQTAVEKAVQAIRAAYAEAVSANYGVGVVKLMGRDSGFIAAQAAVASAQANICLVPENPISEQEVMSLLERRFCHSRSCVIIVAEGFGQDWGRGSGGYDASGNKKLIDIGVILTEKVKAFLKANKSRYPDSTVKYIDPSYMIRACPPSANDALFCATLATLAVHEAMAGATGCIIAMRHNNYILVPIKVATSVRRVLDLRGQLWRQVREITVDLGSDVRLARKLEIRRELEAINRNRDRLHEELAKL", "test": "PYK/LDH linked enzyme assay to determine inhibitor mode of action", "assay_type": "biochemical", "procedure": "TbPFK inhibition was studied using an enzyme assay, in which production of ADP by TbPFK was coupled to the reactions of pyruvate kinase and lactate dehydrogenase: the conversion of pyruvate to lactate and NADH to NAD^+, is monitored by reduction of UV absorbance at 340 nm.\nParasite enzyme kinetic data were measured using N-terminally His6-tagged TbPFK expressed in Escherichia coli C41 cells, using a codon optimised gene inserted in a pET28a vector (Supplementary Methods 1). Recombinant human PFKs were expressed in PFK-deficient Saccharomyces cerevisiae. PFK enzyme inhibition was measured using an ADP-Glo^TM assay (Promega) in a 96-well plate format (Supplementary Methods 2.1), using a Spectramax© M5 Multimode Plate Reader to measure luminescence values which were converted to ADP concentrations. IC50 values were determined using a sigmoidal curve fitting algorithm in Kaleidagraph 4 (Supplementary Fig. 1). Mode of action studies were carried out using a linked enzyme assay coupling the forward reaction of TbPFK to the M1 isoform of human pyruvate kinase followed by lactate dehydrogenase. The change in UV absorbance at 340 nm resulting from the conversion of NADH to NAD^+ was measured at 25 °C in ‘kinetic mode’ on a Spectramax© M5 Multimode plate reader. […] An alternative linked enzyme assay was developed to control for the potential inhibitory activity of ATP on human PFK (Supplementary Methods 2.3).\nThe mechanism of TbPFK inhibition was studied using a coupled enzyme assay in which production of ADP by TbPFK was coupled to the reaction of human M1 isoform pyruvate kinase (hPYK), which converts ADP and phosphoenolpyruvate (PEP) to ATP and pyruvate. The reaction is further coupled to lactate dehydrogenase (LDH), which converts pyruvate and NADH to lactate and NAD^+, respectively. NADH conversion was monitored by measuring changes in NADH absorbance.\nA 2.5x ‘assay mix’ was made containing 4.8 mM PEP, 1.2 mM NADH , 20 U/ml PYK, 33 U/ml LDH, 0 to 3mM ATP in assay buffer (10 mM MgCl2, 100 mM KCl, 50 mM TEA, 10% glycerol, 0.005% Tween-20, pH 7.4). For measuring activity 40 µl of assay mix was plated in a clear, non-binding 96 well plate (Greiner Bio-One cat. no. 655901) with 4-10 µl of the PFK sample (typically a 0.1 mg/ml stock) to be tested and 40 – 46 µl of assay buffer. The reaction was started upon addition of 10 µl of up to 6 mM F6P (0.6 mM final concentration). Absorbance at 340 nm was read at 20 second intervals for 10 minutes at 25 °C in ‘kinetic mode’ on a Spectramax© M5 Multimode plate reader. The gradient of the linear section of raw plots of NADH absorbance over time were used to obtain initial velocities.", "note": "Entries after “also recorded” stand apart in the source; their conditions may differ."}
{"smiles": "CN(C)CCn1ccc2c(ccn2Cc2ccc(Cl)c(Cl)c2)c1=O", "note": "[CTCB-405, 1-[(3,4-Dichlorophenyl)methyl]-5-[2-(dimethylamino)ethyl] pyrrolo[3,2-c]pyridin-4-one]", "values": [{"measurement": "mode of inhibition with respect to ATP and F6P", "value": "not competitive with either ATP or F6P; also recorded: not competitive with either substrate"}, {"measurement": "Vmax, Michaelis Menten best fit versus ATP", "setting": "CTCB-405 at 0.5 x IC50", "value": 36.5, "unit": "µmol/min/mg"}, {"measurement": "Vmax, Michaelis Menten best fit versus F6P", "setting": "CTCB-405 at 0.5 x IC50", "value": 38.7, "unit": "µmol/min/mg"}, {"measurement": "Vmax, Michaelis Menten best fit versus ATP", "setting": "CTCB-405 at 1x IC50", "value": 33.8, "unit": "µmol/min/mg"}, {"measurement": "Vmax, Michaelis Menten best fit versus F6P", "setting": "CTCB-405 at 1x IC50", "value": 33.6, "unit": "µmol/min/mg"}, {"measurement": "Vmax, Michaelis Menten best fit versus ATP", "setting": "CTCB-405 at 2 x IC50", "value": 26.6, "unit": "µmol/min/mg"}, {"measurement": "Vmax, Michaelis Menten best fit versus F6P", "setting": "CTCB-405 at 2 x IC50", "value": 34.0, "unit": "µmol/min/mg"}]}
